These results are taken from patent US20200131161A1, “NOVEL POCHONIOLIDE COMPOUND AND USE THEREOF” (THE KITASATO INSTITUTE, priority 2017, published 2020).

A short description of series [1]: Acrylamide produced by Maillard reaction using a mixture of asparagine and glucose (Morinaga acrylamide EIA kit). Conditions: compound at 6 mg/ml final concentration; heated in autoclave 121° C. 20 minutes; untreated sample 51 ng/ml. On the procedure: An aqueous solution (0.25 ml) of 100 mg/ml glucose (Wako Pure Chemical Corporation) treated with Chelex 100 (Bio-Rad Laboratories, Inc.) and an aqueous solution (0.5 ml) of 50 mg/ml asparagine (Wako Pure Chemical Corporation) treated with Chelex 100 (Bio-Rad Laboratories, Inc.) were introduced into a 1.5-ml microtube. Pochoniolides A, B, and C dissolved in methanol to a fmal concentration of 6 mg/ml and dihydroquercetin (final concentration 10% methanol) as a positive control were added, and the total amount of the solution was adjusted to 1.0 ml with the addition of distilled water. After the resultant was heated in an autoclave at 121° C. for 20 minutes, the amount of acrylamide produced was measured with the use of Morinaga acrylamide EIA kit (Morinaga Institute of Biological Science, Inc.) in accordance with the protocols.

The subject of series [2] is Bacillus subtilis ATCC 6633, Micrococcus luteus ATCC 9341, Escherichia coli NIHJKB213, Xanthomonas campestris pv. oryzae KB 88, Candida albicans KF1, Mucor …. Type of series: cell-based.
A short description of series [3]: Solubility (physicochemical properties). The following applies: DMSO, acetone, water, methanol.
Series [4] relates to HeLaS3 cells, A549 cells, H1299 cells, HT29 cells, Pancl cells, Jurkat cells, HL60 cells, THP-1 cells. The series is described as follows: Cytotoxicity test in vitro, cell viability by WST-8. Type of series: cell-based. Conditions: at 100 μM, all eight human cell lines, culture for 2 days. On the procedure:
Cytotoxicity of the pochoniolides of the present invention on various cells was tested. Human cervical cancer-derived HeLaS3 cells, human lung cancer-derived A549 cells, human lung cancer-derived H1299 cells (not expressing p53), human colon adenocarcinoma HT29 cells, human pancreatic cancer […], human acute T cell leukemia-derived Jurkat cells, human promyelocyte leukemia HL60 cells, and human acute monocytic leukemia THP-1 cells were subjected to evaluation of cytotoxicity by measuring cell viability using WST-8 (Dojindo Laboratories). The cells that had reached 80% confluence were counted using a hemocytometer, and a cell suspension was prepared. The cell suspension was dispensed into each well of a 96-well microplate at 100 μl/well using multichannel pipettes. Only a medium was added to a blank (background) well in an amount of 100 μl. HeLaS3 cells, A549 cells, H1299 cells, HT29 cells, and […] cultured for 24 hours in a CO2-incubator, Jurkat cells, HL60 cells, and THP-1 cells were cultured for 1 to 2 hours in a CO2-incubator. Solutions of the compounds diluted 3-fold from 10 mM to 100 μM in methanol or dimethyl sulfoxide were prepared, and the resulting solutions were then added at 1 μl/well (final concentration: 100 μM to 1 μM). After culture was performed for 2 days, 10 μl of the WST-8 reagent was introduced into each well, culture was performed for 30 to 60 minutes, and the absorbance at 460 nm was measured. The cell viability was determined in accordance with the following equation. Cell viability (%)=[(As-Ab)/(Ac-Ab)]×100 • As: Absorbance of sample (a well containing cells, pochoniolide A, B, or C, and a WST-8 solution) • Ac: Absorbance of control (a well containing cells and a WST-8 solution without pochoniolide A, B, or C) • Ab: Absorbance of blank (a well containing a medium and a WST-8 solution without cells)

Series [5] is described as follows: Effects for decreasing acrylamide in model food (french fries). The following applies: test compound at final concentration of 1% applied to formed potatoes, fried in oil at 170 to 200 degrees for 1 minute; for concentration of acrylamide produced: control 7 ppm. On the procedure:
Pochoniolides B and C were evaluated in terms of effects of decreasing acrylamide in a model food (french fries) using dihydroquercetin as a positive control. Commercially available frozen french fries (raw) were thawed and a portion of 10 g was separated. The portion of 10 g was ground in a mortar and formed into individual homogeneous portions of 1 g each, followed by forming. The test compounds were dissolved in a small amount of ethanol to a final concentration of 1%. The ethanol solution was homogeneously applied to the formed potatoes. The potatoes were fried in oil at 170 to 200 degrees for 1 minute, and measurement of the acrylamide concentration was requested to Morinaga Institute of Biological Science, Inc. The results are shown in FIG. 7. While the concentration of acrylamide produced was 7 ppm with the addition of control sample, the concentration of acrylamide produced was 4 ppm with the addition of dihydroquercetin as a positive control. No effects of pochoniolide B for decreasing the amount of acrylamide production were observed. The concentration of acrylamide produced was 2 ppm in the group to which pochoniolide C was added.

In the case of `O=C(O)CC1OC(=O)C=C1C1Oc2cc(O)cc(O)c2C(=O)C1O` (stereo not shown) [pochoniolide C], in series [1], the “amount of acrylamide produced” value was 18 ng/mL. In series [2], the “antibacterial activity (growth-inhibiting circle)” value was “no antibacterial activity”. For the same molecule, the Solubility entry in series [3] is “easily soluble in DMSO and acetone, but hardly soluble in water and methanol”. Moreover, in series [4], the “cytotoxicity (cell viability)” value is reported as “no toxicity”. The “concentration of acrylamide produced” value in series [5] is given as 2 ppm.

`O=C(O)CC1OC(=O)C=C1c1coc2cc(O)cc(O)c2c1=O` (stereo not shown) [pochoniolide A]: in series [1], the “amount of acrylamide produced” value turned out to be 53 ng/mL. The “antibacterial activity (growth-inhibiting circle)” value in series [2] is reported as “no antibacterial activity”. In series [3], the Solubility result is “easily soluble in DMSO and acetone, but hardly soluble in water and methanol”. The “cytotoxicity (cell viability)” value in series [4] is recorded as “no toxicity”.

For the molecule `O=C1c2c(O)cc(O)cc2O[C@H](c2ccc(O)c(O)c2)[C@H]1O` [dihydroquercetin, reference compound], in series [1], the “amount of acrylamide produced” value worked out at 28 ng/mL. In series [5], the “concentration of acrylamide produced” value is 4 ppm.

pochoniolide B: the “amount of acrylamide produced” value in series [1] worked out at 9 ng/mL. For the same molecule, in series [2], the “antibacterial activity (growth-inhibiting circle)” value is on record as “no antibacterial activity”. In addition, the Solubility result in series [3] was “easily soluble in DMSO and acetone, but hardly soluble in water and methanol”. Further, the “cytotoxicity (cell viability)” value in series [4] is listed as “no toxicity”. In addition, the “effects for decreasing the amount of acrylamide production” value in series [5] is listed as “No effects”.
